Source: patent publication US10072011B2, “Substituted bridged urea analogs as sirtuin modulators” (GlaxoSmithKline Intellectual Property (No.2) Limited, priority 2014, dated 2018)
Read-outs that look alike come from different tables or passages of the source.

Target: T1, SIRT1 (Homo sapiens, UniProt Q96EB6)
T1 sequence (Q96EB6 1-747): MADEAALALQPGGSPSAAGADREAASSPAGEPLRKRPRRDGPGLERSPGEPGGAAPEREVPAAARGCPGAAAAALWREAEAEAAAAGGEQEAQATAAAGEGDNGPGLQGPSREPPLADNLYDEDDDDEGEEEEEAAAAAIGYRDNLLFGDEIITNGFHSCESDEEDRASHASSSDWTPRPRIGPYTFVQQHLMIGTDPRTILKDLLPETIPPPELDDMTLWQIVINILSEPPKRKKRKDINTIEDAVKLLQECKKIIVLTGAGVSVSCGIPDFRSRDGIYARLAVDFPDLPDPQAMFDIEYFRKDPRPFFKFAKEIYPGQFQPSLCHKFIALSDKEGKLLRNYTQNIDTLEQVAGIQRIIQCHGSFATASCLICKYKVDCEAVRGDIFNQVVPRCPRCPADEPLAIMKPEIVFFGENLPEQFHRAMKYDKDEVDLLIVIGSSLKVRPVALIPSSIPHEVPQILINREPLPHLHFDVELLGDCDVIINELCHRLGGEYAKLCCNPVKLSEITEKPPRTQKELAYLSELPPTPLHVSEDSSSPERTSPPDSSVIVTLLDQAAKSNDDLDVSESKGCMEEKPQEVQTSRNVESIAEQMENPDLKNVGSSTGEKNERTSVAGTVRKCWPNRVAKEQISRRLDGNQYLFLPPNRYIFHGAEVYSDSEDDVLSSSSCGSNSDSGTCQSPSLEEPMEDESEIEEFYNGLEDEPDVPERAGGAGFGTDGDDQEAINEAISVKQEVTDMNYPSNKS
Assay: Trp mass spectrometry assay of SIRT1 activation (Ac-R-H-K-K(Ac)-W-NH2 peptide)
Type: biochemical
Details: for Emax: 25 min, read-out: TRP MAX RESP (percent maximum fold activation)
Procedure: The Trp mass spectrometry assay was conducted as follows. […] The SIRT1 protein was obtained by cloning the SirT1 gene into a T7-promoter containing vector, which was then expressed in BL21(DE3) bacterial cells and purified as described in further detail below. Test compound was added at varying concentrations to this reaction mixture and the resulting reactions were monitored. After the 25 minute incubation with SIRT1, 10 μL of 10% formic acid was added to stop the reaction. The resulting reactions were sealed and frozen for later mass spec analysis. The relative SIRT1 activity was then determined by measuring the amount of O-acetyl-ADP-ribose (OAADPR) formed (or, alternatively, the amount of deacetylated Trp peptide generated) by the NAD-dependent sirtuin deacetylation reaction in the presence of varying concentrations of the test compound versus control reactions lacking the test compound. The degree to which the test agent activated deacetylation by SIRT1 was expressed as EC1.5 (i.e., the concentration of compound required to increase SIRT1 activity by 50% over the control lacking test compound), and Percent Maximum Activation (i.e., the maximum activity relative to control (100%) obtained for the test compound).
This time point was the same as that used for test compounds and, within the linear range, the endpoint represents a change in velocity.
For the above assay, SIRT1 protein was expressed and purified as follows. The SirT1 gene was cloned into a T7-promoter containing vector and transformed into BL21(DE3). The protein was expressed by induction with 1 mM IPTG as an N-terminal His-tag fusion protein at 18° C. overnight and harvested at 30,000×g. Cells were lysed with lysozyme in lysis buffer (50 mM Tris-HCl, 2 mM Tris[2-carboxyethyl]phosphine (TCEP), 10 μM ZnCl2, 200 mM NaCl) and further treated with sonication for 10 min for complete lysis. The protein was purified over a Ni-NTA column (Amersham) and fractions containing pure protein were pooled, concentrated and run over a sizing column (Sephadex S200 26/60 global). The peak containing soluble protein was collected and run on an Ion-exchange column (MonoQ). Gradient elution (200 mM-500 mM NaCl) yielded pure protein. This protein was concentrated and dialyzed against dialysis buffer (20 mM Tris-HCl, 2 mM TCEP) overnight. The protein was aliquoted and frozen at −80° C. until further use.
“NT” means not tested; “ND” means not determinable.

[1] = Trp peptide 0.5 μM, 120 μM βNAD+, 10 nM SIRT1, 25 min at 25° C., relative to control (100%)
[2] = Trp peptide 0.5 μM, 120 μM βNAD+, 10 nM SIRT1, 25 min at 25° C.

## O=C(NC[C@@H](O)C(F)(F)F)c1ccc2c(n1)N(C(=O)Nc1ccc(F)cn1)[C@H]1CCN2C1 [Example 71, (4S)—N5-(5-fluoropyridin-2-yl)-N7-((R)-3,3,3-trifluoro-2-hydroxypropyl)-3,4-dihydro-1,4-methanopyrido[2,3-b][1,4]diazepine-5,7(2H)-dicarboxamide]
[1]
  Emax: > 150%
[2]
  TRP Activity (EC1.5, concentration of test compound that results in 150% activation of SIRT1): A (EC1.5<1 μM)

## O=C(NC1CCCOC1)c1ccc2c(n1)N(C(=O)Nc1ccccn1)[C@H]1CCN2C1 (stereo partly drawn) [Example 5, (4S)—N-5-(pyridin-2-yl)-N-7-(tetrahydro-2H-pyran-3-yl)-3,4-dihydro-1,4-methanopyrido [2,3-b] [1, 4] diazepine-5, 7(2H)-dicarboxamide]
[1]
  Emax: > 150%
[2]
  TRP Activity (EC1.5, concentration of test compound that results in 150% activation of SIRT1): B (EC1.5 1-25 μM)

## CC[C@H](C)NC(=O)c1ccc2c(n1)N(C(=O)Nc1ccccn1)[C@H]1CCN2C1 [Example 26, (4S)—N7-((S)-sec-butyl)-N5-(pyridin-2-yl)-3,4-dihydro-1,4-methanopyrido[2,3-b][1,4]diazepine-5,7(2H)-dicarboxamide]
[1]
  Emax: > 150%
[2]
  TRP Activity (EC1.5, concentration of test compound that results in 150% activation of SIRT1): A (EC1.5<1 μM)

## O=C(NC1CC(F)(F)C1)c1ccc2c(n1)N(C(=O)Nc1ccccn1)[C@H]1CCN2C1 [Example 246, (4S)—N7-(3,3-difluorocyclobutyl)-N5-(pyridin-2-yl)-3,4-dihydro-1,4-methanopyrido[2,3-b][1,4]diazepine-5,7(2H)-dicarboxamide]
[1]
  Emax: > 150%
[2]
  TRP Activity (EC1.5, concentration of test compound that results in 150% activation of SIRT1): A (EC1.5<1 μM)

## C[C@@H](NC(=O)c1ccc2c(n1)N(C(=O)Nc1cc(O)ccn1)[C@H]1CCN2C1)C(F)(F)F [Example 301, (4S)—N5-(4-hydroxypyridin-2-yl)-N7-((R)-1,1,1-trifluoropropan-2-yl)-3,4-dihydro-1,4-methanopyrido[2,3-b][1,4]diazepine-5,7(2H)-dicarboxamide]
[1]
  Emax: < 150%
[2]
  TRP Activity (EC1.5, concentration of test compound that results in 150% activation of SIRT1): A (EC1.5<1 μM)

## O=C(NC1(CO)CC1)c1ccc2c(n1)N(C(=O)Nc1ccccn1)[C@H]1CCN2C1 [Example 17, (4S)—N7-(1-(hydroxymethyl)cyclopropyl)-N5-(pyridin-2-yl)-3,4-dihydro-1,4-methanopyrido[2,3-b][1,4]diazepine-5,7(2H)-dicarboxamide]
[1]
  Emax: > 150%
[2]
  TRP Activity (EC1.5, concentration of test compound that results in 150% activation of SIRT1): B (EC1.5 1-25 μM)

## COC(=O)CNC(=O)c1ccc2c(n1)N(C(=O)Nc1ccccn1)[C@H]1CCN2C1 [Example 12]
[1]
  Emax: > 150%
[2]
  TRP Activity (EC1.5, concentration of test compound that results in 150% activation of SIRT1): B (EC1.5 1-25 μM)

## O=C(NC1CC1(F)F)c1ccc2c(n1)N(C(=O)Nc1cc(OCCO)ccn1)[C@H]1CCN2C1 (single isomer, unassigned) [Example 263]
[2]
  TRP Activity (EC1.5, concentration of test compound that results in 150% activation of SIRT1): B (EC1.5 1-25 μM)
[1]
  TRP MAX RESP (percent maximum fold activation): A (Fold activation≥150%)

## CC(C)c1ccc(NC(=O)N2c3nc(C(=O)NCC(F)(F)F)ccc3N3CC[C@H]2C3)nc1 [Example 172, (4S)—N5-(5-isopropylpyridin-2-yl)-N7-(2,2,2-trifluoroethyl)-3,4-dihydro-1,4-methanopyrido[2,3-b][1,4]diazepine-5,7(2H)-dicarboxamide]
[1]
  Emax: > 150%
[2]
  TRP Activity (EC1.5, concentration of test compound that results in 150% activation of SIRT1): A (EC1.5<1 μM)

## NC(CNC(=O)c1ccc2c(n1)N(C(=O)Nc1ncccn1)[C@H]1CCN2C1)C(F)(F)F (single isomer, unassigned) [Example 198]
[1]
  Emax: > 150%
[2]
  TRP Activity (EC1.5, concentration of test compound that results in 150% activation of SIRT1): B (EC1.5 1-25 μM)

## Cc1ccnc(NC(=O)N2c3nc(C(=O)N[C@H](C)C(F)(F)F)ccc3N3CC[C@H]2C3)c1 [Example 55, (4S)—N5-(4-methylpyridin-2-yl)-N7-((R)-1,1,1-trifluoropropan-2-yl)-3,4-dihydro-1,4-methanopyrido[2,3-b][1,4]diazepine-5,7(2H)-dicarboxamide]
[1]
  Emax: > 150%
[2]
  TRP Activity (EC1.5, concentration of test compound that results in 150% activation of SIRT1): A (EC1.5<1 μM)

## O=C(NC[C@H](O)C(F)(F)F)c1ccc2c(n1)N(C(=O)Nc1cc(OC[C@H](O)CO)ccn1)[C@H]1CCN2C1 [Example 91, (4S)—N5-(4-((R)-2,3-dihydroxypropoxy)pyridin-2-yl)-N7-((S)-3,3,3-trifluoro-2-hydroxypropyl)-3,4-dihydro-1,4-methanopyrido[2,3-b][1,4]diazepine-5,7(2H)-dicarboxamide]
[1]
  Emax: > 150%
[2]
  TRP Activity (EC1.5, concentration of test compound that results in 150% activation of SIRT1): A (EC1.5<1 μM)

## O=C(NC(CCO)C(F)(F)F)c1ccc2c(n1)N(C(=O)Nc1ccccn1)[C@H]1CCN2C1 (single isomer, unassigned) [Example 248]
[2]
  TRP Activity (EC1.5, concentration of test compound that results in 150% activation of SIRT1): B (EC1.5 1-25 μM)
[1]
  TRP MAX RESP (percent maximum fold activation): A (Fold activation≥150%)

## Cc1ccc2c(NC(=O)N3c4nc(C(=O)N[C@H](CO)C(F)(F)F)ccc4N4CC[C@H]3C4)n[nH]c2n1 [Example 139, (4S)—N5-(6-methyl-1H-pyrazolo[3,4-b]pyridin-3-yl)-N7-((R)-1,1,1-trifluoro-3-hydroxypropan-2-yl)-3,4-dihydro-1,4-methanopyrido[2,3-b][1,4]diazepine-5,7(2H)-dicarboxamide]
[1]
  Emax: > 150%
[2]
  TRP Activity (EC1.5, concentration of test compound that results in 150% activation of SIRT1): A (EC1.5<1 μM)

## Cc1ncc(-c2ccnc(NC(=O)N3c4nc(C(=O)N[C@H](CO)C(F)(F)F)ccc4N4CC[C@H]3C4)c2)o1 (single isomer, unassigned) [Example 125]
[1]
  Emax: > 150%
[2]
  TRP Activity (EC1.5, concentration of test compound that results in 150% activation of SIRT1): A (EC1.5<1 μM)

## COc1ccnc(NC(=O)N2c3nc(C(=O)N[C@@H]4CC4(F)F)ccc3N3CC[C@H]2C3)c1 (single isomer, unassigned) [Example 274]
[1]
  Emax: > 150%
[2]
  TRP Activity (EC1.5, concentration of test compound that results in 150% activation of SIRT1): B (EC1.5 1-25 μM)

## O=C(NC1CC1)c1ccc2c(n1)N(C(=O)Nc1cnccn1)[C@H]1CCN2C1 [Example 222, (4S)—N7-cyclopropyl-N5-(pyrazin-2-yl)-3,4-dihydro-1,4-methanopyrido[2,3-b][1,4]diazepine-5,7(2H)-dicarboxamide]
[1]
  Emax: > 150%
[2]
  TRP Activity (EC1.5, concentration of test compound that results in 150% activation of SIRT1): B (EC1.5 1-25 μM)

## C[C@@H](NC(=O)c1ccc2c(n1)N(C(=O)Nc1ccncn1)[C@H]1CCN2C1)C(F)(F)F [Example 66, (4S)—N5-(pyrimidin-4-yl)-N7-((R)-1,1,1-trifluoropropan-2-yl)-3,4-dihydro-1,4-methanopyrido[2,3-b][1,4]diazepine-5,7(2H)-dicarboxamide]
[1]
  Emax: > 150%
[2]
  TRP Activity (EC1.5, concentration of test compound that results in 150% activation of SIRT1): A (EC1.5<1 μM)

## N#CCNC(=O)c1ccc2c(n1)N(C(=O)Nc1ccccn1)[C@H]1CCN2C1 [Example 107, (4S)—N7-(cyanomethyl)-N5-(pyridin-2-yl)-3,4-dihydro-1,4-methanopyrido[2,3-b][1,4]diazepine-5,7(2H)-dicarboxamide]
  Emax: > 150%
[2]
  TRP Activity (EC1.5, concentration of test compound that results in 150% activation of SIRT1): A (EC1.5<1 μM)

## O=C(NC1CC1(F)F)c1ccc2c(n1)N(C(=O)Nc1cccnn1)[C@H]1CCN2C1 (single isomer, unassigned) [Example 270]
[1]
  Emax: > 150%
[2]
  TRP Activity (EC1.5, concentration of test compound that results in 150% activation of SIRT1): A (EC1.5<1 μM)
